# Experimental data taken from article PMC7761077, “Differential Effects of Cancer-Associated Mutations Enriched in Helix H3 of PPARγ” (Cancers, 2020).
# pKd: −log10 of the molar value.
# Experiments:
# [1] = target: MED1 co-activator peptide containing the LXXLL motif; assay: SPR; MED1 peptide amine-coupled to a CM5 chip (about 60 RU); PPARγ LBD WT or mutant injected at 78 nM to 10 μM, 30 μL/min, 120 s, dissociation 400 s; Biacore T200, 25 °C; 50 mM Tris-HCl pH 7.5, 150 mM NaCl, 1 mM TCEP, 0.005% tween 20; 1:1 Langmuir model
# RXRα LBD = assay: SPR heterodimerization of PPARγ LBD proteins with immobilized RXRα LBD; type: binding
# Description: The transcriptional activity of PPARγ is regulated by heterodimer formation with RXRα and the recruitment of co-regulators.
# (§1) The binding affinities of PPARγ LBD with lobeglitazone, RXRα and MED1 were investigated by SPR kinetics experiments. All SPR experiments were conducted at 25 °C in a Biacore T200 system (GE Healthcare). For immobilization, an amine coupling kit containing 0.1 M N-hydroxysuccinimide and 0.4 M 1-ethyl-3-(3-dimethylaminopropyl) carbodiimide hydrochloride on a CM5 sensor chip with HBS-EP (HEPES-buffered saline with EDTA and surfactant P20) buffer (10 mM HEPES pH 7.5, 150 mM NaCl, 3 mM EDTA, 0.005% tween 20) was used according to the manufacturer’s protocol (GE Healthcare). […] The remaining activated carboxyl groups on the CM5 sensor chip surface were deactivated with 1 M ethanolamine at pH 8.5 for 400 s. The control experiment was treated identically with reference flow cell 1 or 3 without proteins and the response by the control was subtracted from each sample dataset. […] The sensor chip surface was regenerated for 5 s with 5 mM NaOH between cycles. […] The SPR response data were fit to the simple bimolecular 1:1 Langmuir isotherm binding model to determine the equilibrium dissociation constant (KD) using Biacore T200 evaluation software 3.0 (GE Healthcare).
# MED1 peptide = assay: SPR binding of PPARγ LBD proteins to immobilized MED1 co-activator peptide
# Description: Next, we evaluated the interaction between PPARγ LBD and MED1 co-activator peptides containing the LXXLL motif, where X represents any amino acid residue, by SPR (Figure 3D–F and Figure S8).
# as §1
# PPARγ LBD S289C = target: T1, PPARγ LBD S289C (Homo sapiens, UniProt P37231, S317C); assay: ITC binding of endogenous ligands to PPARγ LBD S289C; conditions: PBS pH 7.2, 25 °C, ligand 0.9 mM
# T1 construct: PPARγ LBD (residues 195–477 in PPARγ1 numbering) was cloned into the expression vector pET-28b(+); made in house; host or cells: Escherichia coli Rosetta 2(DE3)
# T1 sequence (P37231 195-477 isoform P37231-2 S289C): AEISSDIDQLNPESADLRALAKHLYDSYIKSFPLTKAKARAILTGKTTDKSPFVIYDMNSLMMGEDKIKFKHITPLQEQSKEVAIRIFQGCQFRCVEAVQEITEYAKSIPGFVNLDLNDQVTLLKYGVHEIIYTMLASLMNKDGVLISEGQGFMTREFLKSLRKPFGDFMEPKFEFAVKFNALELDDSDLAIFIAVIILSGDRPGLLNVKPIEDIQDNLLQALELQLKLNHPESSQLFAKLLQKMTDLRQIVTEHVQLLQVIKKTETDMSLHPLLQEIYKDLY
# Description: (§2) Since PPARγ is physiologically regulated by endogenous ligands, it is possible that the activation of PPARγ mutants would be induced upon binding to known endogenous PPARγ ligands. […] […]. […] […].
# (§3) All the measurements were conducted in the buffer of PBS pH 7.2 at 25 °C. The ligands filled in the syringe were titrated into the proteins in the cell using 19 injections of 2 μL and an initial injection of 0.4 μL with 150 s equilibration between injections. The final protein concentrations of PPARγ LBD WT and mutants were 60 μM for 15d-PGJ2 at the ligand concentration of 900 μM and 45 μM for 13S-HODE at the ligand concentration of 900 μM, respectively. The obtained data were analyzed using Origin 7.0 software.
# PPARγ LBD F287Y = target: T2, PPARγ LBD F287Y (Homo sapiens, UniProt P37231, F315Y); assay: ITC binding of endogenous ligands to PPARγ LBD F287Y; conditions: PBS pH 7.2, 25 °C, ligand 0.9 mM
# T2 construct: PPARγ LBD (residues 195–477 in PPARγ1 numbering) was cloned into the expression vector pET-28b(+); made in house; host or cells: Escherichia coli Rosetta 2(DE3)
# T2 sequence (P37231 195-477 isoform P37231-2 F287Y): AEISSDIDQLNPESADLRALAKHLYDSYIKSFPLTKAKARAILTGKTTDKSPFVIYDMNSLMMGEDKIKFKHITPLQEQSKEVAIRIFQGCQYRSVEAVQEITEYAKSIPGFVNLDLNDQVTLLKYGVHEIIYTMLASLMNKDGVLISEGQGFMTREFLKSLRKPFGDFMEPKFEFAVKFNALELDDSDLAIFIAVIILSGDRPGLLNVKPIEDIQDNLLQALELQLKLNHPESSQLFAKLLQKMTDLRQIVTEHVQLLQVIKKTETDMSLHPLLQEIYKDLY
# Description: as §2, §3
# PPARγ LBD WT = target: T3, PPARγ LBD WT (Homo sapiens, UniProt P37231); assay: ITC binding of endogenous ligands to PPARγ LBD WT; conditions: PBS pH 7.2, 25 °C, ligand 0.9 mM
# T3 construct: PPARγ LBD (residues 195–477 in PPARγ1 numbering) was cloned into the expression vector pET-28b(+); made in house; host or cells: Escherichia coli Rosetta 2(DE3)
# T3 sequence (P37231 195-477 isoform P37231-2): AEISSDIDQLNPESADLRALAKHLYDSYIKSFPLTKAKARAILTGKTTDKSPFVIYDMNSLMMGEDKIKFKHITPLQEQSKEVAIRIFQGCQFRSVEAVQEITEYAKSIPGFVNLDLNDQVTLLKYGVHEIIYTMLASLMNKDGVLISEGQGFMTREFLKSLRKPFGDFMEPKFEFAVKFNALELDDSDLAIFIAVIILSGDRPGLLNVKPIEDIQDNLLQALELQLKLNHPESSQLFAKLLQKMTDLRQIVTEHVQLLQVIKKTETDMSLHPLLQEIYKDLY
# Description: as §2, §3
# PPARγ LBD R288H = target: T4, PPARγ LBD R288H (Homo sapiens, UniProt P37231, R316H); assay: ITC binding of endogenous ligands to PPARγ LBD R288H; conditions: PBS pH 7.2, 25 °C, ligand 0.9 mM
# T4 construct: PPARγ LBD (residues 195–477 in PPARγ1 numbering) was cloned into the expression vector pET-28b(+); made in house; host or cells: Escherichia coli Rosetta 2(DE3)
# T4 sequence (P37231 195-477 isoform P37231-2 R288H): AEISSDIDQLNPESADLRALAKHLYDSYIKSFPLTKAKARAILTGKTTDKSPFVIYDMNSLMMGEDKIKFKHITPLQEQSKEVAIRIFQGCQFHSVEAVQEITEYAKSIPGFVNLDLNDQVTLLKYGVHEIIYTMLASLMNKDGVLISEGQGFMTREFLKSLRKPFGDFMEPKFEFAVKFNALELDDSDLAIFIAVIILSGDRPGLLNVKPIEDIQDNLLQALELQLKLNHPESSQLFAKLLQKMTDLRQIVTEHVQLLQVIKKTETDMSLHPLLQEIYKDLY
# Description: as §2, §3
# PPARγ LBD C285Y = target: T5, PPARγ LBD C285Y (Homo sapiens, UniProt P37231, C313Y); assay: ITC binding of endogenous ligands to PPARγ LBD C285Y; conditions: PBS pH 7.2, 25 °C, ligand 0.9 mM
# T5 construct: PPARγ LBD (residues 195–477 in PPARγ1 numbering) was cloned into the expression vector pET-28b(+); made in house; host or cells: Escherichia coli Rosetta 2(DE3)
# T5 sequence (P37231 195-477 isoform P37231-2 C285Y): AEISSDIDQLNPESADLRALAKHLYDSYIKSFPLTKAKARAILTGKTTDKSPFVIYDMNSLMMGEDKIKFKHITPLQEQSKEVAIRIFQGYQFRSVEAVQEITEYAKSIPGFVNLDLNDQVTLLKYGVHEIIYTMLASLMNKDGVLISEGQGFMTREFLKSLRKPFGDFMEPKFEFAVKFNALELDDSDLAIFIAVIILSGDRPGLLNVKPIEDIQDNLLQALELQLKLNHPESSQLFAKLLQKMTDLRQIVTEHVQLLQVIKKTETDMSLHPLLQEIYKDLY
# Description: as §2, §3
# PPARγ LBD Q286P = target: T6, PPARγ LBD Q286P (Homo sapiens, UniProt P37231, Q314P); assay: ITC binding of endogenous ligands to PPARγ LBD Q286P; conditions: PBS pH 7.2, 25 °C, ligand 0.9 mM
# T6 construct: PPARγ LBD (residues 195–477 in PPARγ1 numbering) was cloned into the expression vector pET-28b(+); made in house; host or cells: Escherichia coli Rosetta 2(DE3)
# T6 sequence (P37231 195-477 isoform P37231-2 Q286P): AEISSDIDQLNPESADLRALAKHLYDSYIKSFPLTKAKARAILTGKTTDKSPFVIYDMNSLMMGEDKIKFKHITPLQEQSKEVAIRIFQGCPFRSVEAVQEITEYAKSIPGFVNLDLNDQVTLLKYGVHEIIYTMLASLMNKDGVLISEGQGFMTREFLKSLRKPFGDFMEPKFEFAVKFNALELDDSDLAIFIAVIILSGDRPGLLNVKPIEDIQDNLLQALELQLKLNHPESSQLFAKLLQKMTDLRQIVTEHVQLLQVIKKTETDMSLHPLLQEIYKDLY
# Description: as §2, §3
# PPARγ LBD R280C = target: T7, PPARγ LBD R280C (Homo sapiens, UniProt P37231, R308C); assay: ITC binding of endogenous ligands to PPARγ LBD R280C; conditions: PBS pH 7.2, 25 °C, ligand 0.9 mM
# T7 construct: PPARγ LBD (residues 195–477 in PPARγ1 numbering) was cloned into the expression vector pET-28b(+); made in house; host or cells: Escherichia coli Rosetta 2(DE3)
# T7 sequence (P37231 195-477 isoform P37231-2 R280C): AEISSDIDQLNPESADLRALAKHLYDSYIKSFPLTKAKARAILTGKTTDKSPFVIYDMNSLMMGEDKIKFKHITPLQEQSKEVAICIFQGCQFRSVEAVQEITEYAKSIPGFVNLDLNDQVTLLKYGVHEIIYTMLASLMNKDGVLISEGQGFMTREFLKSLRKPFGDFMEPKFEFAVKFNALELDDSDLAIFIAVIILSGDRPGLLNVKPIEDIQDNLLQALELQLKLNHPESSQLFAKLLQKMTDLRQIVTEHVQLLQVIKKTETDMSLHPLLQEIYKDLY
# Description: as §2, §3
compound,measurement,setting,value
"PPARγ LBD WT (peroxisome proliferator-activated receptor gamma ligand-binding domain, wild-type) (from UniProt P37231-2 195-477) (domain or fragment)",pKd,[1],5.07
"PPARγ LBD WT: recombinant human PPARγ ligand-binding domain (residues 195–477), wild-type",ka for RXRα LBD,RXRα LBD,396000 M⁻¹ s⁻¹
same,kd for RXRα LBD,RXRα LBD,0.0223 s⁻¹
same,pKd,"RXRα LBD; 25 °C, RXRα LBD immobilized",7.24
same,ka for MED1 peptide,MED1 peptide,146000 M⁻¹ s⁻¹
same,kd for MED1 peptide,MED1 peptide,1.24 s⁻¹
same,pKd,"MED1 peptide; 25 °C, MED1 peptide immobilized",5.07
"CCCCCC=CC=C1C(=O)C=C[C@@H]1CC=CCCCC(=O)O [15d-PGJ2, 15-deoxy-∆^12,14-prostaglandin J2]",pKd,PPARγ LBD S289C,4.37
same,pKd,PPARγ LBD F287Y,4.19
same,pKd,PPARγ LBD WT,4.29
same,pKd,PPARγ LBD R288H,< 3.70
same,pKd,PPARγ LBD C285Y,3.79
same,pKd,PPARγ LBD Q286P,3.70
same,pKd,PPARγ LBD R280C,< 3.70
